According to ChEMBL document CHEMBL5550161, “Discovery of novel small molecules targeting the USP21/JAK2/STAT3 axis for the treatment of triple-negative breast cancer” (Eur J Med Chem, 2024):
Calls of active or inactive are those of the source. No cut-off for these calls is given here.

Tests used:
HCC1806 [1] = assay: Antitumor activity against human HCC1806 cells xenografted in Balb/c mouse at 60 mg/kg, ip bid measured after 14 days relative to control; assay type: functional; conditions: HCC1806, 336 h, time 14 day, read-out: TGI
MDA-MB-231 [2] = assay: Induction of apoptosis in human MDA-MB-231 cells assessed as decrease in JAK1 level by Western blot analysis; assay type: functional, cell-based; conditions: dose 0.1-0.4 µM
[3] = Cmax in Sprague-Dawley rat at 4 mg/kg, ip; assay type: ADME, organism-based; conditions: in vivo
MDA-MB-231 [4] = assay: Anti-proliferative activity against human MDA-MB-231 cells assessed as reduction in EdU-positive cells at 0.2 uM; assay type: functional, cell-based
MDA-MB-231 [5] = assay: Induction of apoptosis in human MDA-MB-231 cells assessed as necrotic cells at 1.6 uM incubated for 24 hrs by Annexin V-FITC/PI staining based flow cytometry (reference value: 0.07 %); assay type: functional
HCC1806 [6] = assay: Induction of apoptosis in human HCC1806 cells assessed as late apoptotic cells at 0.2 uM incubated for 24 hrs by Annexin V-FITC/PI staining based flow cytometry (reference value: 0.23 %); assay type: functional
MDA-MB-231 [7] = assay: Induction of apoptosis in human MDA-MB-231 cells assessed as late apoptotic cells at 0.8 uM incubated for 24 hrs by Annexin V-FITC/PI staining based flow cytometry (reference value: 1.23 %); assay type: functional
[8] = Toxicity in Balb/c nude mouse assessed as histopathological change in lung at 60 mg/kg, ip bid for 14 days consecutively; assay type: organism-based; conditions: in vivo, 336 h, time 14 day
[9] = Tmax in Sprague-Dawley rat at 4 mg/kg, ip; assay type: ADME, organism-based; conditions: in vivo
MCF7 = assay: Anti-proliferative activity against human MCF7 cells assessed as cell growth inhibition incubated for 72 hrs by MTT assay; assay type: functional, cell-based; conditions: MCF7, 72 h
HCC1806 [10] = assay: Induction of apoptosis in human HCC1806 cells assessed as early apoptotic cells at 0.1 uM incubated for 24 hrs by Annexin V-FITC/PI staining based flow cytometry (reference value: 0.67 %); assay type: functional
MDA-MB-231 [11] = assay: Induction of apoptosis in human MDA-MB-231 cells assessed as viable cells at 0.4 uM incubated for 24 hrs by Annexin V-FITC/PI staining based flow cytometry (reference value: 97.54 %); assay type: functional; conditions: read-out: Activity
HCC1806 [12] = assay: Synergistic inhibition of cell proliferation in human HCC1806 cells assessed as combination index at 0.35 uM in presence of PTX; assay type: functional
HCC1806 [13] = assay: Induction of apoptosis in human HCC1806 cells assessed as late apoptotic cells at 1.6 uM incubated for 24 hrs by Annexin V-FITC/PI staining based flow cytometry (reference value: 0.23 %); assay type: functional
MDA-MB-231 [14] = assay: Induction of apoptosis in human MDA-MB-231 cells assessed as early apoptotic cells at 0.8 uM incubated for 24 hrs by Annexin V-FITC/PI staining based flow cytometry (reference value: 1.16 %); assay type: functional
HCC1806 [15] = assay: Induction of apoptosis in human HCC1806 cells assessed as ROS production rate at 0.4 uM incubated for 24 hrs by DCFH-DA staining based flow cytometry (reference value: 0.23 %); assay type: functional
[16] = Half life in Sprague-Dawley rat at 4 mg/kg, ip; assay type: ADME, organism-based; conditions: in vivo
[17] = molecular target: Tyrosine-protein kinase JAK2 (Homo sapiens, UniProt O60674); assay: Induction of JAK2 degradation in human HCC1806 cells at 0.2 uM incubated for 18 to 72 hrs by Western blot analysis; assay type: cell-based; conditions: time 18-72 hrs
MDA-MB-231 [18] = assay: Induction of apoptosis in human MDA-MB-231 cells assessed as ROS production rate at 0.2 uM incubated for 24 hrs by DCFH-DA staining based flow cytometry (reference value: 0.28 %); assay type: functional
HCC1806 [19] = assay: Downregulation of USP21 level in human HCC1806 cells at 0.1 to 0.4 uM incubated for 24 hrs by Western blot analysis; assay type: functional, cell-based; conditions: dose 0.1-0.4 µM
HCC1806 [20] = assay: Induction of apoptosis in human HCC1806 cells assessed as early apoptotic cells at 0.2 uM incubated for 24 hrs by Annexin V-FITC/PI staining based flow cytometry (reference value: 0.67 %); assay type: functional
HCC1806 [21] = assay: Antitumor activity against human HCC1806 cells xenografted in Balb/c mouse assessed as decrease in JAK2 level at 40 to 60 mg/kg, ip bid measured after 14 days by immunofluorescence based analysis; assay type: functional, organism-based; conditions: dose 40-60 mg/kg, time 14.0 day
MDA-MB-231 [22] = assay: Induction of apoptosis in human MDA-MB-231 cells assessed as early apoptotic cells at 0.2 uM incubated for 24 hrs by Annexin V-FITC/PI staining based flow cytometry (reference value: 1.16 %); assay type: functional
MDA-MB-231 [23] = assay: Anti-proliferative activity against human MDA-MB-231 cells assessed as cell growth inhibition incubated for 72 hrs by MTT assay; assay type: functional, cell-based; conditions: MDA-MB-231, 72 h
HCC1806 [24] = assay: Inhibition of cell migration in human HCC1806 cells; assay type: functional, cell-based; conditions: dose 0.05-2 µM
HCC1806 [25] = assay: Antitumor activity against human HCC1806 cells xenografted in Balb/c mouse assessed as decrease in Bcl-2 level at 40 to 60 mg/kg, ip bid measured after 14 days by IHC analysis; assay type: functional, organism-based; conditions: dose 40-60 mg/kg, time 14.0 day
[26] = Toxicity in Balb/c nude mouse assessed as histopathological change in heart at 60 mg/kg, ip bid for 14 days consecutively; assay type: organism-based; conditions: in vivo, 336 h, time 14 day
MDA-MB-231 [27] = assay: Inhibition of cell migration in human MDA-MB-231 cells; assay type: functional, cell-based; conditions: dose 0.05-2 µM
HCC1806 [28] = assay: Upregulation of JAK2 mRNA level in human HCC1806 cells at 0.2 uM incubated for 18 to 72 hrs; assay type: functional, cell-based; conditions: time 18-72 hrs
HCC1806 [29] = assay: Downregulation of CUL5 level in human HCC1806 cells at 0.1 to 0.4 uM incubated for 24 hrs by Western blot analysis; assay type: functional, cell-based; conditions: dose 0.1-0.4 µM
MDA-MB-231 [30] = assay: Induction of apoptosis in human MDA-MB-231 cells assessed as viable cells at 0.2 uM incubated for 24 hrs by Annexin V-FITC/PI staining based flow cytometry (reference value: 97.54 %); assay type: functional; conditions: read-out: Activity
HCC1806 [31] = assay: Antitumor activity against human HCC1806 cells xenografted in Balb/c mouse assessed as reduction in tumor weight at 40 to 60 mg/kg, ip bid measured after 14 days; assay type: functional, organism-based; conditions: dose 40-60 mg/kg, time 14.0 day
MDA-MB-231 [32] = assay: Induction of apoptosis in human MDA-MB-231 cells assessed as necrotic cells at 0.1 uM incubated for 24 hrs by Annexin V-FITC/PI staining based flow cytometry (reference value: 0.07 %); assay type: functional
[33] = Toxicity in Balb/c nude mouse assessed as histopathological change in liver at 60 mg/kg, ip bid for 14 days consecutively; assay type: organism-based; conditions: in vivo, 336 h, time 14 day
MDA-MB-231 [34] = assay: Induction of apoptosis in human MDA-MB-231 cells assessed as decrease in STAT3 phosphorylation at Y705 by Western blot analysis; assay type: functional, cell-based; conditions: dose 0.1-0.4 µM
MDA-MB-231 [35] = assay: Induction of apoptosis in human MDA-MB-231 cells assessed as necrotic cells at 0.8 uM incubated for 24 hrs by Annexin V-FITC/PI staining based flow cytometry (reference value: 0.07 %); assay type: functional
HCC1806 [36] = assay: Antitumor activity against human HCC1806 cells xenografted in Balb/c mouse assessed as reduction in tumor volume at 40 to 60 mg/kg, ip bid measured after 14 days; assay type: functional, organism-based; conditions: dose 40-60 mg/kg, time 14.0 day

Sequence of Tyrosine-protein kinase JAK2 (O60674 whole entry): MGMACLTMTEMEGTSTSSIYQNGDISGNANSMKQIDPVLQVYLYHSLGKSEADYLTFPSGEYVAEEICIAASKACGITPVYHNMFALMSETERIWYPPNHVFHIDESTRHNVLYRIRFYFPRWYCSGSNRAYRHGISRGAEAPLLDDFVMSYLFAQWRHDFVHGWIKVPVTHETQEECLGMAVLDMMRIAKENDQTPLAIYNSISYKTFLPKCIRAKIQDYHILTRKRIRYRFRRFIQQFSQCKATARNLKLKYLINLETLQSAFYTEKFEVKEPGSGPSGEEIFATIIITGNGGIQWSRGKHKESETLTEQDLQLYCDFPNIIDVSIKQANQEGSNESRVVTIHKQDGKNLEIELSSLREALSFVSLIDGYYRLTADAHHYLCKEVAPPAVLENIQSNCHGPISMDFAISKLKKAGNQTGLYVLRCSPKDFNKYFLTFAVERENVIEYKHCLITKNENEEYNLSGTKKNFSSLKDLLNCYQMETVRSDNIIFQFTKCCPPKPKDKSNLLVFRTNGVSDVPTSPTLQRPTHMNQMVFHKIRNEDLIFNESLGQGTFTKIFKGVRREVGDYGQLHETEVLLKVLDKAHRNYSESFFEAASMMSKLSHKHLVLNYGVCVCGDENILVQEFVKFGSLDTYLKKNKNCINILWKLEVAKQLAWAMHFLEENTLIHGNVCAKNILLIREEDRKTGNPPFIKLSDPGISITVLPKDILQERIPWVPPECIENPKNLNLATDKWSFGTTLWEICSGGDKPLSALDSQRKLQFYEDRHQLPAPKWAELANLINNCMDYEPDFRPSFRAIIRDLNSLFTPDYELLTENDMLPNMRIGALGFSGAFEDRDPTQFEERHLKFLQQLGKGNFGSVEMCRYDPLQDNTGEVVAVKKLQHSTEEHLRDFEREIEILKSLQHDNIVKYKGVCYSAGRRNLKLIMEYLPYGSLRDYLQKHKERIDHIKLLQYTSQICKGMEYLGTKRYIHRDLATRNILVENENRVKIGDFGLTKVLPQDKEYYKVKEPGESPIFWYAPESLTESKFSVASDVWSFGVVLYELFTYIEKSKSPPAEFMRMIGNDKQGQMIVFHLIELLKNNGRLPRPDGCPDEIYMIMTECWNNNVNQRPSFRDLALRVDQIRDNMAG

Question: What does the source list for COc1cc(Nc2cc(F)ccc2C(=O)NCCc2c[nH]c3c(F)ccc(F)c23)cc(OC)c1OC?
Answer: inhibition in vivo at 60 mg/kg (HCC1806 [1]): 67.7%; Activity (MDA-MB-231 [2]): Active; Cmax [3]: 229 ng/mL; Activity (MDA-MB-231 [4]): Active; Activity (MDA-MB-231 [5]): 0.09%; Activity (HCC1806 [6]): 0.45%; Activity (MDA-MB-231 [7]): 2.15%; Activity [8]: Non-Toxic; Tmax [9]: 2.67 h; IC50 (MCF7): 1450 nM; Activity (HCC1806 [10]): 0.65%; viability at 0.4 µM (MDA-MB-231 [11]): 95.7%; CI (HCC1806 [12]): <1; Activity (HCC1806 [13]): 1.92%; Activity (MDA-MB-231 [14]): 3.18%; Activity (HCC1806 [15]): 5%; half-life [16]: 5.57 h; Activity [17]: Active; Activity (MDA-MB-231 [18]): 1.06%; Activity (HCC1806 [19]): Active; Activity (HCC1806 [20]): 1.13%; Activity (HCC1806 [21]): Active; Activity (MDA-MB-231 [22]): 1.99%; IC50 (MDA-MB-231 [23]): 190 nM; inhibition (HCC1806 [24]): Active; Activity (HCC1806 [25]): Active; Activity [26]: Non-Toxic; inhibition (MDA-MB-231 [27]): Active; Activity (HCC1806 [28]): Active; Activity (HCC1806 [29]): Active; viability at 0.2 µM (MDA-MB-231 [30]): 96.1%; Activity (HCC1806 [31]): Active; Activity (MDA-MB-231 [32]): 0.19%; Activity [33]: Non-Toxic; Activity (MDA-MB-231 [34]): Active; Activity (MDA-MB-231 [35]): 0.11%; Activity (HCC1806 [36]): Active
